Among the data in US10233152B2, “LSD1 inhibitors” (Mirati Therapeutics, Inc., priority 2015, dated 2019) are IC50 values, retold here.

Each structure is given as a SMILES string.

Assay [1] concerns the target purified N-terminal truncated human LSD1 enzyme (aa 151-852) (Homo sapiens (Human), UniProt O60341). Nature of the assay: LSD1 fluorescence coupling enzymatic assay (horseradish peroxidase/Amplex Red). Format: biochemical. To be noted: 50 nM LSD1, 30 min pre-incubation, histone 3.3 peptide (aa 1-21), 10-point dose-response; read-out: Inhibition of LSD1 Activity IC50.
Method: Briefly, compounds of the present invention were solubilized in DMSO and a series of 10, three-fold serial dilutions were made for each compound in 15% DMSO. The initial starting concentration for the serial dilutions of each compound was 10 μM.
An aliquot of each serial dilution of test compound was added to a 96 well plate containing 50 nM purified N-truncated LSD1 enzyme (RBC Cat# PDM-11-350), 50 mM Tris-HCl, pH 7.5, 0.05% CHAPS and 1% DMSO in a 10 microliter reaction volume. The plate was pre-incubated at room temperature for 30 min to which 10 M of histone 3.3 peptide (aa 1-21) was added to initiate the enzymatic reaction. The reaction mixture was incubated at room temperature for one hour. […] The IC50 value for each compound was determined from each 10-point dose-response curve using GraphPad Prism 4 software with a sigmodial dose response.
In another assay the test system is MV4-11 cells. Nature of the assay: Inhibition of LSD1-mediated cell proliferation, CellTiter Glo luminescence assay. Conditions: Homo sapiens, MV4-11, 168 h, read-out: Inhibition of LSD1-mediated Cell Proliferation IC50.

Method for MV4-11 cells: Inhibition of LSD1-mediated cellular proliferation by compounds of Formula (I) or Formula (II) was measured in a CellTiter Glo luminescence assay (Promega Corp), which determines the number of viable cells by quantitating the amount of ATP, using a BMG LabTech CLARIOStar instrument in accordance with the manufacturer's instructions. […] The plates were incubated at 37° C. for four days and thereafter 50 μl fresh medium containing the same concentration of test compound was added. The plates were incubated for an additional three days (Day 7). A baseline measurement, as described below, was taken for a time zero point at Day 0.
At Day 7, the supernatant was removed by aspiration and the plate was allowed to equilibrate to room temperature (˜15 min). The cells were lysed using 45 μl (30 μl for Day 0) of Cell Titer Glo reagent (Promega Corp). The plates were shaken for two minutes and incubated at room temperature for 30 minutes. The degree of inhibition of cell viability was determined using a spectrophotometric readout by measuring the luminescence at 340 nm and the EC50 concentration for each compound was calculated using Graph Pad Prism 4 software.

As for `Brc1ccc(NCCN2CCC(N[C@@H]3C[C@H]3c3ccccc3)CC2)cc1` [Example 33, 1-(2-((4-bromophenyl)amino)ethyl)-N-((1R,2S)-2-phenylcyclopropyl)piperidin-4-amine], the IC50 (in assay [1]; in the assay with MV4-11 cells) was under 1 nM throughout.
Consider `C[N+]1(CCOc2ccc(CC(=O)NS(C)(=O)=O)cc2)CC(CN[C@@H]2C[C@H]2c2ccccc2)C1` (stereo partly drawn) [Example 98], for which the IC50 in the assay with MV4-11 cells is over 1000 nM.
